Measured values published in patent EP4516280A1, “COSMETIC COMPOSITIONS” (The Boots Company plc, priority 2023, dated 2025).

test system: mushroom tyrosinase; experiment: Tyrosinase inhibition test (L-DOPA oxidation, absorbance at 470 nm); assay type: biochemical; details: single compound, Concentration 0.1%
Source text: The tyrosinase inhibition test was used to determine the tyrosinase inhibition ability of the compounds. The test comprises adding the test compound to a solution of L-dihydroxyphenylalanine (L-(DOPA)) and mushroom tyrosinase. L-(DOPA) is converted to […] by the mushroom tyrosinase, causing a brown colour to form. Inhibition of this reaction prevents the brown colour formation. The lighter the colour at the end of the reaction, the stronger is the inhibitory effect of the active. Absorbance data may be collected using a plate reacted set up to have a kinetic read every 1 minute for 30 minutes, where absorbance is read at 470 nm.

Row | Compound | Tyrosinase Inhibition (%)
1 | C=C(C)[C@@H]1CCC(C)=C[C@H]1c1c(O)cc(CCCCC)cc1O [G, Cannabidiol isolate (CBD)] | 9.134
2 | CCCCCCCCCCCCCCC[C@@H](O)[C@@H](N)CO [K, Sphinganine] | -5.78
3 | O=C(O)C(O)c1ccccc1 (centres unmarked) [B, Mandelic acid] | 80.279
4 | Feruloyl oligopeptide-33 | 41.765
5 | CC1(C)[C@@H](O[C@H]2O[C@H](C(=O)[O-])[C@@H](O)[C@H](O)[C@H]2O[C@@H]2O[C@H](C(=O)[O-])[C@@H](O)[C@H](O)[C@H]2O)CC[C@]2(C)[C@H]3C(=O)C=C4[C@@H]5C[C@@](C)(C(=O)O)CC[C@]5(C)CC[C@@]4(C)[C@]3(C)CC[C@@H]12.[K+].[K+] [H, Dipotassium glycyrrhizate (DPG)] | 54.567
